The source of these data is ChEMBL document CHEMBL1201862, “PubChem BioAssay data set” (2004).

Some test systems named below: MDA-MB-231; MCF7; CCRF-CEM; M14; SR; SK-MEL-2; TK-10; A549; SN12C; SF-539; K562; HL-60; 786-0; MDA-N; Hs-578T; SF-295; A498; SNB-75; NCI-H522; NCI/ADR-RES.
What all share (test): inhibition of tumour cell growth, NCI panel, 48 h

Each structure is given as a SMILES string.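 Exposure lasted 48 hours, with cells grown in 96-well plates and compounds tested at five concentrations. GI50 is the concentration that inhibits growth by half.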 Calls of active or inactive are those of the source. Cut-off read from the data, not from the text of the source: active = GI50 up to about 1.1 µM and inactive = higher.

For `O=C1C(NCCN2CCOCC2)=C(Cl)C(=O)c2ncccc21`, the GI50 with MDA-MB-231 was 1.58 µM (inactive); in the test on MCF7, 0.326 µM (active); in the test with CCRF-CEM, 0.214 µM (active); with M14, 0.469 µM (active); in the test with SR it was 1.32 µM (inactive); with SK-MEL-2, 0.226 µM (active). For the same molecule, the GI50 with TK-10 was 1.45 µM (inactive); with A549, 1.55 µM (inactive); in the test with SN12C, 1.36 µM (inactive); with SF-539, 1.18 µM (inactive); with K562 it was 0.179 µM (active); in the test on HL-60 it was 0.0249 µM (active). Besides, the GI50 with 786-0 was 0.431 µM (active); in the test with MDA-N, 0.178 µM (active); in the test on Hs-578T it was 1.21 µM (inactive); with SF-295, 1.4 µM (inactive); in the test with A498, 2.03 µM (inactive); with SNB-75, 1.12 µM (inactive).

On to `CC1=C(C)C(=O)OC(C(C)(O)C2(O)CC3OC34C3CC(O)C56OC5C=CC(=O)C6(C)C3CCC42C)C1` (configuration not stated), for which the GI50 with MDA-MB-231 was 1.78 µM (inactive); in the test on MCF7 it was 1.21 µM (inactive); in the test on CCRF-CEM, 0.851 µM (active); in the test on NCI-H522, 0.361 µM (active); in the test on M14 it was 1.27 µM (inactive); with SK-MEL-2 it was 2.59 µM (inactive). The GI50 was 1.5 µM (inactive) in the test on TK-10; 3.33 µM (inactive) with A549; 2.82 µM (inactive) in the test on SN12C; 2 µM (inactive) with SF-539; 0.927 µM (active) in the test on K562; 0.264 µM (active) with HL-60. Moreover, the GI50 is 1.51 µM (inactive) with 786-0; 1.61 µM (inactive) with MDA-N; 1.77 µM (inactive) in the test with Hs-578T; 3.48 µM (inactive) in the test on SF-295; 2.73 µM (inactive) in the test with A498; 3.78 µM (inactive) in the test on SNB-75.

For `CCc1cc2c(oc3c4ccccc4ccc23)c(=O)[nH]1`, the GI50 in the test on MCF7, with CCRF-CEM, in the test on NCI-H522, in the test with M14, in the test with SR and with TK-10 was > 10 µM (inactive) each time. Besides, the GI50 with A549, in the test with SF-539, in the test with K562, in the test on HL-60, with 786-0 and in the test on MDA-N was > 10 µM (inactive) each time. For the same molecule, the GI50 in the test on Hs-578T, in the test with SF-295 and in the test with SNB-75 was > 10 µM (inactive) throughout.

`CC(C)CCC[C@@H](C)[C@H]1CC[C@H]2[C@@H]3CC[C@H]4C[C@H](N)CC[C@]4(C)[C@H]3CC[C@]12C`: the GI50 with MDA-MB-231 was 2.84 µM (inactive); in the test with MCF7, 23.8 µM (inactive); with NCI/ADR-RES, 26.7 µM (inactive); in the test with CCRF-CEM, 2.83 µM (inactive); in the test on NCI-H522, 21 µM (inactive); with M14 it was 13.8 µM (inactive). The GI50 is 16.6 µM (inactive) in the test on TK-10; 16.9 µM (inactive) in the test on A549; 22.9 µM (inactive) in the test on SN12C; 24.5 µM (inactive) with K562; 3.34 µM (inactive) in the test on HL-60; 20.4 µM (inactive) in the test on 786-0. Also, the GI50 in the test with MDA-N was 30.9 µM (inactive); in the test with Hs-578T, 20 µM (inactive); with SF-295, 19.3 µM (inactive); with A498, 22.2 µM (inactive); with SNB-75 it was 18.5 µM (inactive).

In the case of `Cc1cc(Cl)ccc1Nc1nc2c(s1)C(=O)c1ccccc1C2=O`, the GI50 is 1.3 µM (inactive) in the test with MDA-MB-231; 1.87 µM (inactive) with MCF7; 2.18 µM (inactive) in the test with CCRF-CEM; 1.99 µM (inactive) in the test with NCI-H522; 0.948 µM (active) in the test with M14; 2.8 µM (inactive) in the test with SR. In addition, the GI50 in the test on SK-MEL-2 is 8.45 µM (inactive); with TK-10, 16.9 µM (inactive); in the test with A549, 4.59 µM (inactive); with SN12C, 1.8 µM (inactive); with SF-539, 3.39 µM (inactive); in the test on K562, 2.41 µM (inactive). Moreover, the GI50 in the test with HL-60 was 0.621 µM (active); in the test on 786-0, 1.71 µM (inactive); in the test on MDA-N, 0.604 µM (active); with Hs-578T, 2.39 µM (inactive); with SF-295 it was 9.12 µM (inactive); with A498, 22.2 µM (inactive). For the same molecule, the GI50 in the test with SNB-75 was 7.33 µM (inactive).

Consider `COc1cc2c3c(c1Oc1nnnn1-c1ccccc1)-c1c(ccc4c1OCO4)C[C@H]3N(C)CC2`, for which the GI50 was 41.8 µM (inactive) in the test on MDA-MB-231; 35.7 µM (inactive) in the test with NCI/ADR-RES; 24.5 µM (inactive) in the test with CCRF-CEM; 36.1 µM (inactive) with NCI-H522; 18.7 µM (inactive) in the test on M14; 46.7 µM (inactive) in the test with SR. For the same molecule, the GI50 in the test on SK-MEL-2 is 71.9 µM (inactive); with TK-10, 75.5 µM (inactive); with A549, 45.6 µM (inactive); in the test with SN12C, 32.4 µM (inactive); in the test with SF-539, > 100 µM (inactive); in the test with K562, 29.6 µM (inactive). Also, the GI50 in the test with HL-60 was 15.1 µM (inactive); in the test with 786-0, 17.5 µM (inactive); with MDA-N it was 21.9 µM (inactive); with Hs-578T it was 28.4 µM (inactive); with SF-295, 32.2 µM (inactive); in the test with SNB-75, 22.6 µM (inactive).

As to `Nc1nn2c(=O)c3ccccc3nc2s1`, the GI50 is 50.1 µM (inactive) in the test on MCF7; > 100 µM (inactive) in the test with NCI/ADR-RES; 18.2 µM (inactive) with CCRF-CEM; 17.5 µM (inactive) in the test on NCI-H522; 28.6 µM (inactive) with M14; 20.5 µM (inactive) in the test with SR. Besides, the GI50 was > 100 µM (inactive) in the test on SK-MEL-2; > 100 µM (inactive) in the test with TK-10; > 100 µM (inactive) in the test on A549; 65.6 µM (inactive) in the test on SN12C; 43.9 µM (inactive) in the test with SF-539; 28.4 µM (inactive) in the test with K562. The GI50 in the test with 786-0 was 42.5 µM (inactive); in the test on MDA-N, 38.3 µM (inactive); in the test on Hs-578T, > 100 µM (inactive); in the test with SF-295 it was > 100 µM (inactive); in the test on A498 it was > 100 µM (inactive); with SNB-75 it was > 100 µM (inactive).

Regarding `CCOC(=O)C(C(=O)OCC)=C1NC2(c3ccccc3Nc3ccc(C)cc32)C(C#N)S1` (configuration not stated), the GI50 in the test on MCF7 was 3.05 µM (inactive); with NCI/ADR-RES, 5.2 µM (inactive); with CCRF-CEM it was 4.27 µM (inactive); in the test with NCI-H522, 11.2 µM (inactive); with M14 it was 3.92 µM (inactive); in the test on SR, 2.44 µM (inactive). Besides, the GI50 with SK-MEL-2 is 8.07 µM (inactive); in the test with TK-10, 8.47 µM (inactive); in the test on A549, 3.01 µM (inactive); in the test with SN12C it was 3.24 µM (inactive); in the test with SF-539, 3.72 µM (inactive); in the test on K562, 4.9 µM (inactive). In addition, the GI50 is 13.1 µM (inactive) with HL-60; 6.79 µM (inactive) in the test on 786-0; 10.6 µM (inactive) in the test on MDA-N; 14.2 µM (inactive) with Hs-578T; 9.59 µM (inactive) in the test on SF-295; 10.3 µM (inactive) in the test on A498. In addition, the GI50 in the test with SNB-75 is 8.55 µM (inactive).
